{"source": "patent US20240238428A1", "about": "(priority 2021, published 2024)", "key": {"HIV": {"system": "HIV", "details": "peptide without selenium, cited from earlier work"}, "virus gp 120 and CD4": {"target": "virus gp 120 and CD4 (Human immunodeficiency virus type 1 group M subtype B, UniProt P04578)", "details": "peptide without selenium; only observed at this relatively high concentration; cited from earlier work"}, "PC-3 cells": {"system": "PC-3 cells", "assay_type": "cell-based"}, "normal human lung cells": {"system": "normal human lung cells", "details": "up to 10 μM"}, "normal prostate cells": {"system": "normal prostate cells", "assay_type": "cell-based"}, "DU-145 cells": {"system": "DU-145 cells", "assay_type": "cell-based"}}, "note": "pIC50: −log10 of the molar value. Like-named read-outs stand apart in the source and are kept apart here."}
{"substance": "TYICEVEDQKEE [gp120-binding 12-mer peptide]", "values": [{"measurement": "effect of peptide without selenium on HIV", "setting": "HIV-1; even at 100 μg/ml, the highest concentration tested", "result": "no significant effect"}, {"measurement": "effect of control peptide solution on HIV-1 inactivation", "setting": "HIV-1; peptide without selenium", "result": "no effect"}, {"measurement": "peptide concentration with 50% infection blocking activity", "setting": "HIV; corresponds to 32 μM", "result": "about 50 μg/ml"}, {"measurement": "pIC50", "setting": "HIV; read-out: peptide concentration with 50% infection blocking activity", "result": 4.49}, {"measurement": "concentration at which an effect on the gp 120-CD4 interaction was observed", "setting": "virus gp 120 and CD4", "result": 457, "unit": "micrograms per ml"}]}
{"substance": "Se-TYICEVEDQKEE", "values": [{"measurement": "inactivation of HIV", "setting": "HIV-1; 10 μg/ml", "result": "over 95%"}, {"measurement": "concentration for 50% inactivation of HIV", "setting": "HIV-1; 0.25 mM reduced glutathione", "result": 1, "unit": "microgram per ml"}, {"measurement": "inhibition of cell infection", "setting": "HIV-1; 0.006 micrograms per ml", "result": "over 50%"}, {"measurement": "inhibition of cell infection", "setting": "HIV-1; 0.5 micrograms per ml", "result": "over 99%"}, {"measurement": "inactivation of HIV virus", "setting": "HIV-1; 10 micrograms per ml, 0.25 mM reduced glutathione, within 1 hour", "result": 95, "unit": "%"}, {"measurement": "concentration for 50% (half maximal) inactivation of HIV", "setting": "HIV-1; 1 hour pre-incubation, 0.25 mM reduced glutathione", "result": 1, "unit": "µg/mL"}, {"measurement": "concentration of peptide that binds and inactivates HIV in one hour", "setting": "HIV-1; one hour", "result": 0.5, "unit": "µg/mL"}, {"measurement": "pIC50", "setting": "HIV-1; read-out: concentration for half maximal inactivation of virus, peptide in the medium during infection, after 100-fold dilution in culture medium", "result": 8.23}, {"measurement": "pIC50", "setting": "HIV-1; read-out: concentration for half maximal inactivation of virus, peptide during the 1 hour pre-incubation", "result": 6.23}, {"measurement": "inactivation of HIV-1 (ability of infected cells to produce virus)", "setting": "HIV-1; seleno-peptide 0.1 ug/ml, one hour with glutathione 250 uM", "result": 95, "unit": "%"}, {"measurement": "increase in effectiveness at preventing infection by coupling selenium to the 12-mer peptide", "setting": "HIV-1; versus peptide without selenium", "result": 50, "unit": "fold"}]}
{"substance": "selenium adduct of dihydrotesterone [SeDHT]", "values": [{"measurement": "sensitivity of cells", "setting": "colorectal cancer cells", "result": "Only the prostate cells are sensitive"}, {"measurement": "concentration that kills the cells", "setting": "PC-3 cells", "result": "less than 10 micromolar"}, {"measurement": "sensitivity of cells", "setting": "normal human lung cells", "result": "Only the prostate cells are sensitive"}, {"measurement": "sensitivity of cells", "setting": "normal prostate cells", "result": "sensitive"}, {"measurement": "concentration that kills the cells", "setting": "DU-145 cells", "result": "less than 10 micromolar"}]}
